{"source": "patent US9730938B2", "about": "“Bruton's tyrosine kinase inhibitor combinations and uses thereof” (Pharmacyclics LLC, priority 2014, dated 2017)", "key": {"OCI-Ly3 cells": {"test_system": "OCI-Ly3 cells", "experiment": "3-day CellTiter Glow combination study in OCI-Ly3 cells", "type": "cell-based", "settings": "in combination with ibrutinib; FIG. 7", "experimental": "(§1) Jeko cells, a MCL cell line, and OCI-Ly3, a DLBCL cell line, were used for this experiment.\n(§2) In summary, 10,000 cells were plated into 96-well plates and treated with different concentrations of inhibitors. 3 days later, CellTiter Glow reagent was added into the wells and the luminescent signals were measured."}, "Jeko cells": {"test_system": "Jeko cells", "experiment": "3-day CellTiter Glow combination study in Jeko cells with wild-type or mutant CARD11", "type": "cell-based", "settings": "FIG. 6", "experimental": "as §1, §2"}, "ABC-DLBCL cells": {"test_system": "ABC-DLBCL cells", "settings": "Ferch et al. 2009; Hailfinger et al. 2009; cited from earlier work"}, "OCI-LY-10": {"test_system": "OCI-LY-10", "experiment": "Combined drug treatment cell viability, CellTiter-Glo assay (Example 1)", "type": "cell-based", "settings": "3 days", "experimental": "(§3) DLBCL cells at either 1×10^4 cells or 2×10^4 cells were plated onto each well of a 96-W plate (Table 1).\n(§4) The stock solutions for the IDH1 inhibitor AGI5198 and the MALT1 inhibitor MI-2 were each prepared at 50 mM concentration.\n(§5) The 96-W plate was then incubated for 3 days. Cell viability was examined using a CellTiter-Glo assay.\n(§6) A 40 μL of CellTiter-Glo reagent was added directly into each well of the 96-W plate. The plate was then shaken on a Shaker (Labsystem Wellmix) at speed 5 for 10-20 min at room temperature. Next, 100 μL of the mixed medium was transferred to a white, non-transparent, flat bottom 96-W plate for assaying. A Flexstation 3 luminometer was used for detecting and measuring the luminescent signals. Measurements were taken at room temperature.\n(§7) In general, the combination is described as synergistic (CI<1), additive (CI=1), or antagonistic (CI>1). Synergism is further separated into very strong synergism (<0.1), strong synergism (0.1-0.3), synergism (0.3-0.7), moderate synergism (0.7-0.85), and slight synergism (0.85-0.9)."}, "TMD8": {"test_system": "TMD8", "experiment": "Combined drug treatment cell viability, CellTiter-Glo assay (Example 1)", "type": "cell-based", "settings": "3 days", "experimental": "as §3, §4, §5, §6, §7"}, "SU-DHL-2": {"test_system": "SU-DHL-2", "experiment": "Combined drug treatment cell viability, CellTiter-Glo assay (Example 1)", "type": "cell-based", "settings": "3 days", "experimental": "as §3, §4, §5, §6, §7"}, "OCI-LY-3": {"test_system": "OCI-LY-3", "experiment": "Combined drug treatment cell viability, CellTiter-Glo assay (Example 1)", "type": "cell-based", "settings": "3 days", "experimental": "as §3, §4, §5, §6, §7"}, "U2932": {"test_system": "U2932", "experiment": "Combined drug treatment cell viability, CellTiter-Glo assay (Example 1)", "type": "cell-based", "settings": "3 days", "experimental": "as §3, §4, §5, §6, §7"}, "CARD11 / NF-κB pathway": {"test_system": "CARD11 / NF-κB pathway", "experiment": "Western blot analysis, Jeko cells containing CARD11 L225LI (mut10)", "type": "cell-based", "settings": "FIG. 8", "experimental": "The cell lysates were prepared from the cells which were treated with different concentrations of inhibitors for overnight incubation. Antibodies that correlate to the proteins of interest were used for detection."}, "[1]": {"settings": "ibrutinib 0 nM, IDH1i 10 uM / MALT1i 5 uM alone"}, "[2]": {"settings": "ibrutinib 0.0256 nM, IDH1i 10 uM / MALT1i 5 uM / medium alone"}, "[3]": {"settings": "ibrutinib 0.128 nM, IDH1i 10 uM / MALT1i 5 uM / medium alone"}, "[4]": {"settings": "ibrutinib 0.64 nM, IDH1i 10 uM / MALT1i 5 uM / medium alone"}, "[5]": {"settings": "ibrutinib 3.2 nM, IDH1i 10 uM / MALT1i 5 uM / medium alone"}, "[6]": {"settings": "ibrutinib 16 nM, IDH1i 10 uM / MALT1i 5 uM / medium alone"}, "[7]": {"settings": "ibrutinib 80 nM, IDH1i 10 uM / MALT1i 5 uM / medium alone"}, "[8]": {"settings": "ibrutinib 400 nM, IDH1i 10 uM / MALT1i 5 uM / medium alone"}, "[9]": {"settings": "ibrutinib 2000 nM, IDH1i 10 uM / MALT1i 5 uM / medium alone"}, "[10]": {"settings": "ibrutinib 10000 nM, IDH1i 10 uM / MALT1i 5 uM / medium alone"}, "[11]": {"settings": "ibrutinib 0 nM, IDH1i 10 uM / MALT1i 200 nM alone"}, "[12]": {"settings": "ibrutinib 0.0256 nM, IDH1i 10 uM / MALT1i 200 nM / medium alone"}, "[13]": {"settings": "ibrutinib 0.128 nM, IDH1i 10 uM / MALT1i 200 nM / medium alone"}, "[14]": {"settings": "ibrutinib 0.64 nM, IDH1i 10 uM / MALT1i 200 nM / medium alone"}, "[15]": {"settings": "ibrutinib 3.2 nM, IDH1i 10 uM / MALT1i 200 nM / medium alone"}, "[16]": {"settings": "ibrutinib 16 nM, IDH1i 10 uM / MALT1i 200 nM / medium alone"}, "[17]": {"settings": "ibrutinib 80 nM, IDH1i 10 uM / MALT1i 200 nM / medium alone"}, "[18]": {"settings": "ibrutinib 400 nM, IDH1i 10 uM / MALT1i 200 nM / medium alone"}, "[19]": {"settings": "ibrutinib 2000 nM, IDH1i 10 uM / MALT1i 200 nM / medium alone"}, "[20]": {"settings": "ibrutinib 10000 nM, IDH1i 10 uM / MALT1i 200 nM / medium alone"}}, "data": [{"molecule": "CC(C)C[C@H](NC(=O)[C@H](CCc1ccccc1)NC(=O)CN1CCOCC1)C(=O)N[C@@H](Cc1ccccc1)C(=O)N[C@@H](CC(C)C)C(=O)[C@@]1(C)CO1", "note": "[Carfilzomib]", "values": [{"measurement": "sensitization of OCI-Ly3 cells", "setting": "OCI-Ly3 cells", "result": "sensitized"}, {"measurement": "sensitization of Jeko cells containing the mutant CARD11 to ibrutinib treatment", "setting": "Jeko cells", "result": "sensitized"}]}, {"molecule": "Z-VRPR-FMK", "values": [{"measurement": "effect on ABC-DLBCL cells", "setting": "ABC-DLBCL cells", "result": "exerts toxic effects"}]}, {"molecule": "COCCOc1nc(-c2ccc(Cl)c(Cl)c2)n(-c2ccc(NC(=O)CCl)cc2)n1", "note": "[MI-2]", "values": [{"measurement": "luminescence (CellTiter-Glo)", "setting": "OCI-LY-10; [1]", "result": 19317.19}, {"measurement": "luminescence (CellTiter-Glo)", "setting": "OCI-LY-10; [2]", "result": 21817.96}, {"measurement": "luminescence (CellTiter-Glo)", "setting": "OCI-LY-10; [3]", "result": 17802.53}, {"measurement": "luminescence (CellTiter-Glo)", "setting": "OCI-LY-10; [4]", "result": 16971.57}, {"measurement": "luminescence (CellTiter-Glo)", "setting": "OCI-LY-10; [5]", "result": 13413.69}, {"measurement": "luminescence (CellTiter-Glo)", "setting": "OCI-LY-10; [6]", "result": 7749.49}, {"measurement": "luminescence (CellTiter-Glo)", "setting": "OCI-LY-10; [7]", "result": 9592.85}, {"measurement": "luminescence (CellTiter-Glo)", "setting": "OCI-LY-10; [8]", "result": 9064.30}, {"measurement": "luminescence (CellTiter-Glo)", "setting": "OCI-LY-10; [9]", "result": 10110.89}, {"measurement": "luminescence (CellTiter-Glo)", "setting": "OCI-LY-10; [10]", "result": 9734.85}, {"measurement": "luminescence (CellTiter-Glo)", "setting": "TMD8; ibrutinib 0 nM, IDH1i 10 uM / MALT1i 100 nM alone", "result": 71955.73}, {"measurement": "luminescence (CellTiter-Glo)", "setting": "TMD8; ibrutinib 0.0256 nM, IDH1i 10 uM / MALT1i 100 nM / medium alone", "result": 26784.40}, {"measurement": "luminescence (CellTiter-Glo)", "setting": "TMD8; ibrutinib 0.128 nM, IDH1i 10 uM / MALT1i 100 nM / medium alone", "result": 23958.89}, {"measurement": "luminescence (CellTiter-Glo)", "setting": "TMD8; ibrutinib 0.64 nM, IDH1i 10 uM / MALT1i 100 nM / medium alone", "result": 25405.91}, {"measurement": "luminescence (CellTiter-Glo)", "setting": "TMD8; ibrutinib 3.2 nM, IDH1i 10 uM / MALT1i 100 nM / medium alone", "result": 24014.24}, {"measurement": "luminescence (CellTiter-Glo)", "setting": "TMD8; ibrutinib 16 nM, IDH1i 10 uM / MALT1i 100 nM / medium alone", "result": 22888.78}, {"measurement": "luminescence (CellTiter-Glo)", "setting": "TMD8; ibrutinib 80 nM, IDH1i 10 uM / MALT1i 100 nM / medium alone", "result": 22045.34}, {"measurement": "luminescence (CellTiter-Glo)", "setting": "TMD8; ibrutinib 400 nM, IDH1i 10 uM / MALT1i 100 nM / medium alone", "result": 21591.99}, {"measurement": "luminescence (CellTiter-Glo)", "setting": "TMD8; ibrutinib 2000 nM, IDH1i 10 uM / MALT1i 100 nM / medium alone", "result": 21278.34}, {"measurement": "luminescence (CellTiter-Glo)", "setting": "TMD8; ibrutinib 10000 nM, IDH1i 10 uM / MALT1i 100 nM / medium alone", "result": 9754.88}, {"measurement": "luminescence (CellTiter-Glo)", "setting": "SU-DHL-2; [11]", "result": 131429.7}, {"measurement": "luminescence (CellTiter-Glo)", "setting": "SU-DHL-2; [12]", "result": 127667.9}, {"measurement": "luminescence (CellTiter-Glo)", "setting": "SU-DHL-2; [13]", "result": 145168.7}, {"measurement": "luminescence (CellTiter-Glo)", "setting": "SU-DHL-2; [14]", "result": 148058.4}, {"measurement": "luminescence (CellTiter-Glo)", "setting": "SU-DHL-2; [15]", "result": 156036.5}, {"measurement": "luminescence (CellTiter-Glo)", "setting": "SU-DHL-2; [16]", "result": 153735.3}, {"measurement": "luminescence (CellTiter-Glo)", "setting": "SU-DHL-2; [17]", "result": 154662.6}, {"measurement": "luminescence (CellTiter-Glo)", "setting": "SU-DHL-2; [18]", "result": 152400.8}, {"measurement": "luminescence (CellTiter-Glo)", "setting": "SU-DHL-2; [19]", "result": 151552.3}, {"measurement": "luminescence (CellTiter-Glo)", "setting": "SU-DHL-2; [20]", "result": 61725.8}, {"measurement": "luminescence (CellTiter-Glo)", "setting": "OCI-LY-3; [1]", "result": 23290.74}, {"measurement": "luminescence (CellTiter-Glo)", "setting": "OCI-LY-3; [2]", "result": 25371.59}, {"measurement": "luminescence (CellTiter-Glo)", "setting": "OCI-LY-3; [3]", "result": 26368.71}, {"measurement": "luminescence (CellTiter-Glo)", "setting": "OCI-LY-3; [4]", "result": 24778.56}, {"measurement": "luminescence (CellTiter-Glo)", "setting": "OCI-LY-3; [5]", "result": 26610.12}, {"measurement": "luminescence (CellTiter-Glo)", "setting": "OCI-LY-3; [6]", "result": 27654.48}, {"measurement": "luminescence (CellTiter-Glo)", "setting": "OCI-LY-3; [7]", "result": 27617.74}, {"measurement": "luminescence (CellTiter-Glo)", "setting": "OCI-LY-3; [8]", "result": 25227.27}, {"measurement": "luminescence (CellTiter-Glo)", "setting": "OCI-LY-3; [9]", "result": 26843.66}, {"measurement": "luminescence (CellTiter-Glo)", "setting": "OCI-LY-3; [10]", "result": 23784.06}, {"measurement": "luminescence (CellTiter-Glo)", "setting": "U2932; [11]", "result": 54720.82}, {"measurement": "luminescence (CellTiter-Glo)", "setting": "U2932; [12]", "result": 48183.41}, {"measurement": "luminescence (CellTiter-Glo)", "setting": "U2932; [13]", "result": 46995.03}, {"measurement": "luminescence (CellTiter-Glo)", "setting": "U2932; [14]", "result": 49419.22}, {"measurement": "luminescence (CellTiter-Glo)", "setting": "U2932; [15]", "result": 48821.08}, {"measurement": "luminescence (CellTiter-Glo)", "setting": "U2932; [16]", "result": 44565.57}, {"measurement": "luminescence (CellTiter-Glo)", "setting": "U2932; [17]", "result": 47234.82}, {"measurement": "luminescence (CellTiter-Glo)", "setting": "U2932; [18]", "result": 41263.93}, {"measurement": "luminescence (CellTiter-Glo)", "setting": "U2932; [19]", "result": 45695.98}, {"measurement": "luminescence (CellTiter-Glo)", "setting": "U2932; [20]", "result": 31838.57}, {"measurement": "sensitization of Jeko cells containing the mutant CARD11 to ibrutinib treatment", "setting": "Jeko cells", "result": "sensitized"}, {"measurement": "effect on NF-κB pathway together with ibrutinib", "setting": "CARD11 / NF-κB pathway", "result": "in some instances synergize with ibrutinib to inhibit the NF-κB pathway"}, {"measurement": "effect on CARD11 protein", "setting": "CARD11 / NF-κB pathway; overnight incubation", "result": "cause degradation of CARD11"}]}]}
